Two compounds from patent US20240201170A1, “MAINTENANCE AND/OR CULTURE OF TISSUE SLICES IN VITRO OR EX VIVO” (NATIONAL UNIVERSITY OF SINGAPORE, priority 2021, published 2024) can be followed below.

The subject of assay [1] is cancer cells within HNSCC patient tumour slices. As to the kind of experiment: Cancer cell kill: pan-cytokeratin+ / cleaved caspase-3+ cells by dual IHC or IF in drug-treated tumour slices. Format: cell-based, human. The protocol: H&E staining and dual IHC were performed on drug-treated and untreated HNSCC slices. Briefly, slices were fixed, processed using the automatic tissue processor, and embedded in paraffin. Paraffin blocks were sectioned and H&E staining was performed. Dual IHC was performed using ChromoPlex 1 Dual Detection (Leica DS9665) with a high pH EDTA-based buffer (ER2, Leica AR9640) for 20 min. A specific cocktail of antibodies was used to identify cancer cell apoptosis, including pan-cytokeratin and cleaved caspase-3 antibody. Standard immunofluorescence were performed with active YAP1. Image acquisition was done using the slide scanning system. The images were processed with a customized analysis profile using the nuclear segmentation method to quantify the percentage of apoptotic cancer cells.

For assay [2], the system named is CD8+ cells in HNSCC tumour slices. Briefly: Flow cytometry of granzyme B expression in CD8+ cells of drug-treated HNSCC patient tumour slices. It counts as cell-based, human. The protocol: Tumour slices were first manually removed from the hydrogel and digested. Dissociated cells were spun down, washed, and resuspended, and counted using a cell counter. Prior to fixing, cells were stained for surface proteins with fluorophore-conjugated antibodies and fixable dye. The cell suspension were then […]. Compensation was performed using single stains; live cells and singlets were gated by gating on a dye differentiating live and dead cells or on scatter characteristics or both.
On the technique in general: Flow cytometry measures light scatter and fluorescence of single cells or particles in a stream.

`N.N.[Cl][Pt][Cl]` [cisplatin] showed an apoptotic cancer cells in assay [1] (Patient 6 (HN358), controls ~5%) of approximately 12%.
On to pembrolizumab, for which the “granzyme B expression in CD8+ cells” value in assay [2] (Patient 6 (HN358), control 8.9%) was 5.2%; in assay [2] (Patient 7 (HN359), compared to control), “slight increase”. In assay [1] (Patient 6 (HN358), Day 2, controls ~11%), the “cleaved caspase-3 positivity (apoptotic) in cancer cells” value is approximately 25%. Moreover, the “tumour kill in drug-treated slices” value in assay [1] (Patient 7 (HN359)) is “no enhanced tumour kill”.
